Like-named read-outs stand apart in the source and are kept apart here.

Consider two compounds from publication PMC11685127, “Pharmacokinetic/pharma-codynamic study of pralurbactam (FL058) combined with meropenem in a neutropenic murine thigh infection model” (Frontiers in Microbiology, 2024).

The nature of series [1]: Single-dose intraperitoneal PK of pralurbactam in mice plasma (UPLC-MS/MS, one-compartment model, population PK). Conditions: for Dose proportionality of Cmax or AUCinf (PK linearity): 5-500 mg/kg ip, non-compartmental regression analysis. It is filed as in vivo. From the text:
The ultra-high performance liquid chromatography-tandem mass spectrometry (UPLC-MS/MS) system consisted of an LC-30A UPLC (Shimadzu Corporation, Japan) equipped with an Atlantis® T3 (3 μm, 2.1 × 100 mm) column, liquidity, and the cleaning solution mixed with formic acid, ammonium acetate, and acetonitrile, an API5500 mass spectrometer (AB SCIEX, USA). The retention times of chromatographic peaks and mass-to-charge ratios were obtained by MRM scanning pralurbactam (m/z 383.2 → 303.0), meropenem (m/z 384.1 → 141.2), internal standards pralurbactam-D4 (m/z 387.3 → 307.1), and meropenem-D6 (m/z 390.1 → 147.2) for peak identification. The drug concentration in the samples was calculated using Watson LIMS (version 7.5).
The UPLC-MS/MS method used to measure pralurbactam and meropenem concentrations in mice plasma was validated accurately in terms of selectivity, interaction, matrix effect, calibration curve, linearity, precision, accuracy, recovery, and stability. […] At this LLOQ level, the intra- and inter-assay precision was 3.5%–9.0% and 6.3% for pralurbactam, 5.0%–10.7% and 14.3% for meropenem. The overall recovery of pralurbactam and meropenem was 81.2% and 58.6%, respectively, and the corresponding coefficient of variation (CV) was 8.0% and 5.4%. This assay method was applied to quantify pralurbactam and meropenem for PK study.
The administration method for pralurbactam or meropenem (dissolved in sterile water) is single-dose intraperitoneal injection. […] Five mice were randomly selected for anesthesia and orbital blood sampling at each time-point (0.083, 0.25, 0.5, 1, 2, 3, 4, and 6 h) after dosing. A blood sample (600–800 μl) was obtained from the mouse immediately. Each mouse selected for blood sampling at each time point was euthanized immediately. The concentrations of pralurbactam and meropenem in plasma samples were determined using the validated UPLC-MS/MS method. PK parameters (including non-compartmental parameter linear fitting and compartmental simulation) of pralurbactam and meropenem in plasma were calculated using Phoenix WinNonlin (version 8.1, Certara Corporation). The compartmental PK parameters of pralurbactam were used to calculate the fCmax, fAUC0–24, and %fT > CT. The free fraction of pralurbactam was 100% based on in vitro mouse plasma.
In this study, the PK parameters of pralurbactam were calculated for each dosage cohort using Phoenix WinNonlin software based on the mean plasma concentrations at each sampling point in mice. The mean values of the PK parameters were used to simulate the potential PK/PD indices. Another method, the PK parameters could be estimated by the population PK (PPK) model using NONMEM software based on the pooled plasma concentrations. The estimated typical values of Ke and V/F based on the population PK model of pralurbactam were generally consistent with the classical mean values of Ke (PPK: 2.34 h^1 vs. classical PK: 2.55 h^1) and V/F (PPK: 0.719 L vs. classical PK: 0.72 L).

Series [2] is described as follows: Free fraction in in vitro mouse plasma. In kind it is in vitro ADME.
In another series the test system is Klebsiella pneumoniae. As to the kind of experiment: Neutropenic murine thigh infection model, PK/PD Emax fitting. It is filed as in vivo. Conditions: fixed 100 mg/kg q2h of meropenem; strains 17-R1-16, 20-W2-70, ATCC BAA-1705. On the procedure:
(§1) Mice (SPF grade, female, 25–30 g, 6–7 weeks) were provided by Beijing Huafukang Biotechnology Co. The animal study was reviewed and approved by the Animal Ethics Committee of State Key Laboratory of Biotherapy, Sichuan University (approval letter No.: 20190923035). All experimental animals from the study were intraperitoneally injected with cyclophosphamide (solution using 0.9% sodium chloride injection to achieve a concentration of 15 mg/ml) at a dose of 150 mg/kg at 4 days and 1 day prior to the day of infection to form immunocompromised mouse models. The hair on both thighs of the mice was shaved off 2 h before inoculation. The injection site was disinfected with 75% alcohol before intramuscular injection and dried with skimmed cotton. The mouse was challenged by inoculum of 1 × 10^8 CFU/ml of the test strain via injection of 50 μl of bacterial solution into both thighs. The time was referred to as t = 0 h, 2 h after the mice were infected. The control mice were euthanized at this time to record the initial bacterial colonies by taking the thigh muscle. The specific dosage of pralurbactam or meropenem for each dosing regimen was intraperitoneally injected (t = 0 h). At 26 h after the mice were infected (t = 24 h), the mice (experimental group) in each dosage cohort were euthanized to record the bacterial load to calculate CFU change (Δlog10 CFU).

In the next series the test system is E. coli. In words: Susceptibility testing (MIC). In kind it is cell-based. Conditions: drug alone. An excerpt:
(§2) The study used a total of […] strains of KPC-, NDM-, or OXA-producing Enterobacterales (three strains of K. pneumoniae and four strains of E. coli), which were provided by Microbiology Division, Institute of Antibiotics, Huashan Hospital, Fudan University. Quality control strains are selected for each bacteria.
(§3) Supplementary Table 1 Susceptibility testing results of meropenem alone, pralurbactam alone, or meropenem with FL058 in combination against K. pneumoniae and E. coli

The subject of another series is K. pneumoniae. In words: Susceptibility testing (MIC). In kind it is cell-based. Conditions: drug alone.
From the text: as §2, §3

In series [3] the test system is Escherichia coli. Conditions: cited from earlier work.
The subject of series [4] is class A, C, and D β-lactamases. Further details: method as in Sharma et al., 2016. Conditions: ref Sharma et al., 2016; cited from earlier work.
The conditions of series [5]: human, in vivo, cited from earlier work.
In series [6] the test system is Escherichia coli. In words: Neutropenic murine thigh infection model, PK/PD Emax fitting. In kind it is in vivo. Conditions: 50 mg/kg meropenem alone q2h (without pralurbactam); strains 18-W40-096 and ATCC BAA-2452. On the procedure: as §1
[7] abbreviates: mean of all dosage cohorts, classical one-compartment PK.
[8] abbreviates: population PK (PPK) model, NONMEM, typical value, pooled plasma concentrations.
[9] abbreviates: pralurbactam 5 mg/kg ip single dose, alone, one-compartment model.
[10] abbreviates: pralurbactam 50 mg/kg ip single dose, alone, one-compartment model.
Where [11] appears, read: pralurbactam 50 mg/kg ip, combined with meropenem 100 mg/kg, one-compartment model.
Setting [12] is: pralurbactam 250 mg/kg ip, combined with meropenem 100 mg/kg, one-compartment model.
[13] abbreviates: pralurbactam 500 mg/kg ip single dose, alone, one-compartment model.

Broadly, the MIC is the least concentration at which growth counts as inhibited. Take `N=C(N)NOCCONC(=O)[C@@H]1CC[C@@H]2CN1C(=O)N2OS(=O)(=O)O` [Pralurbactam]: the figures for the “%fT > 1 mg/L” value in series [1] (50 mg/kg q2h pralurbactam intraperitoneally in mice) and in [5] (iv) were 88% and 86%, respectively. Further, the “Dose proportionality of Cmax or AUCinf (PK linearity)” value is reported as “linear” in [1] and “dose proportional” in [1] (listed as pralurbactam). Also, the Ka is given as 50.2 h^1 in [1] (setting [7]); 26.0 h^1 in series [1] (median value of dosage cohorts, classical PK); 29.1 h^1 in series [1] (population PK (PPK) model, NONMEM, estimate); 27.4 h^1 in series [1] (setting [9]); 13.7 h^1 in [1] (setting [10]); 24.5 h^1 in series [1] (setting [11]). The Ka is recorded as 26.0 h^1 in series [1] (setting [12]) and 159.4 h^1 in [1] (setting [13]). Besides, the Ke in series [1] (setting [7]) is reported as 2.55 h^1; in series [1] (setting [8]) it was 2.34 h^1; in series [1] (setting [9]), 2.24 h^1; in series [1] (setting [10]), 3.83 h^1; in series [1] (setting [11]), 2.11 h^1; in [1] (setting [12]), 1.93 h^1. Moreover, in series [1] (setting [13]), the Ke is 2.64 h^1. The V/F in series [1] (setting [7]) worked out at 0.72 L; in series [1] (setting [8]), 0.719 L; in series [1] (setting [9]), 0.77 L; in series [1] (setting [10]) it was 0.55 L; in series [1] (setting [11]) it was 0.79 L; in series [1] (setting [12]), 0.91 L. The V/F in [1] (setting [13]) is 0.57 L. In series [2], this compound displayed a Free fraction of 100%. In addition, in the series on Klebsiella pneumoniae, the “Pralurbactam dose in the combination that inhibits growth of all test strains” value was “at least 25 mg/kg”. The MIC in the series with E. coli (18-W32-020 (NDM-5)) was 2 µg/mL; with E. coli (18-W39-088 (NDM-1)) it was 4 µg/mL; in the series with E. coli (18-W40-096 (NDM-1)) it was 4 µg/mL; with E. coli (ATCC BAA-2452 (NDM-1)), 4 µg/mL; in the series with K. pneumoniae (17-R1-16 (KPC-2, CTX-M-14)), over 64 µg/mL; with K. pneumoniae (20-W2-70 (OXA-48)), 8 µg/mL. The MIC in the series with K. pneumoniae (ATCC BAA-1705 (KPC-2)) was determined as 4 µg/mL. For the same compound, the “Activity of pralurbactam alone” value in the series on Escherichia coli [3] (ref Huang et al., 2024a) is listed as “partial activity”. In the series on Escherichia coli [3] (ref in vitro susceptibility study (to be published)), the “Inhibitory effect of pralurbactam alone” value is listed as “notable inhibitory effects”. Also, the “Activity against β-lactamases in vitro” value in series [4] is on record as “active”. In addition, the “Safety, tolerance and PK profiles” value in series [5] is “good safety, tolerance, and PK profiles”.

Turning to `C[C@@H](O)[C@H]1C(=O)N2C(C(=O)O)=C(S[C@@H]3CN[C@H](C(=O)N(C)C)C3)[C@H](C)[C@H]12` [Meropenem], the “Growth inhibition in thigh model” value in the series on Escherichia coli [6] is “significant growth inhibition”. Also, the minimal inhibitory concentration (MIC) with E. coli (18-W32-020 (NDM-5)) is 32 µg/mL; in the series with E. coli (18-W39-088 (NDM-1)) it was over 64 µg/mL; in the series with E. coli (18-W40-096 (NDM-1)) it was 64 µg/mL; in the series with E. coli (ATCC BAA-2452 (NDM-1)), 32 µg/mL; in the series on K. pneumoniae (17-R1-16 (KPC-2, CTX-M-14)), over 64 µg/mL; in the series with K. pneumoniae (20-W2-70 (OXA-48)), 32 µg/mL. Further, the MIC in the series with K. pneumoniae (ATCC BAA-1705 (KPC-2)) is 16 µg/mL.
